Format in all cases: biochemical
In test [1] the test system is Fe2+-induced lipid peroxidation in rat brain homogenate. Description: Fe2+-induced lipid peroxidation (TBARS) assay in brain homogenate. Conditions: for Lipid peroxidation IC50: FeSO4, 37 °C 30 min, TBARS 532 nm; for IC50: IC50 values in µM presented for comparison, read-out: LP (IC50 in µM). Here is the method:
Thiobarbituric acid reactive species (TBARS) assay was used to measure the lipid peroxide formed using brain tissue homogenates as lipid-rich media, as described by Ruberto et al. ([2000]) with slight modifications. […] Thereafter, 0.05 mL of FeSO4 was added and the mixture was incubated at 37 °C for 30 min. Then, 1.5 mL of acetic acid was added, followed by 1.5 mL of TBA in SDS. The resulting mixture was mixed and heated at 95 °C for 60 min. After cooling, 5 mL of butanol was added and the mixture was centrifuged at 3000 rpm for 10 min. The absorbance of the organic upper layer was measured at 532 nm and the percentage inhibition was calculated with the formula: (2) %inhibition=[A control – A sample/Acontrol]×100

The nature of test [2]: DPPH radical scavenging assay. Particulars: for DPPH radical IC50: 3.125–100 µg/mL, 30 min in the dark, absorbance 518 nm, triplicate; for IC50: IC50 values in µM presented for comparison. Here is the method:
Based on the principle, when DPPH reacts with an antioxidant compound that can donate hydrogen, it is reduced. The change in colour from deep violet to golden/light yellow can be measured at 518 nm. Briefly, 1 mL of 0.3 mM of DPPH solution was added to 1 mL of each of the test solutions. […] The mixtures were vortexed thoroughly and allowed to stand at room temperature in the dark for 30 min, […]. The absorbance values were recorded at 518 nm, and converted into percentage antioxidant activity, using the formula below: Results were expressed as a percentage of inhibitions (100%). […] Each test was carried out in triplicates.
The % DPPH scavenging effect of the antioxidant was calculated as follows: (1) %DPPH scavenging effect=[A control – A sample/Acontrol]× 100
For orientation: DPPH is a stable violet radical that fades when it is reduced.

Test [3] has as its target T1, rat serum BuChE (Rattus norvegicus, UniProt Q9JKC1).
T1 construct: from tissue; host or cells: rat blood (serum)
Kind of test: BuChE inhibition, Ellman's colorimetric method. Conditions: BuChE IC50, rat blood enzyme, butyrylthiocholine iodide. A general note: In Ellman's method for cholinesterases, released thiocholine reacts with DTNB.
Protocol: Whole-brain tissue from adult male Wistar rat was used as a source of AChE enzyme and a lipid-rich media for lipid peroxidation assay while rat blood tissue was used as a source of BuChE enzyme.
For the enzyme source, the rat brains were homogenized in a homogenizer with 10 volumes of a homogenization buffer (10 mM Tris-HCl, pH 7.2) containing 1 M NaCl, 50 mM MgCl2 and1% Triton X-100 and centrifuged at 10,000 rpm for 30 min. The resulting supernatants were collected, and the solution of these supernatants was used as an enzyme source. The temperature was maintained at 4 °C throughout the excretion procedure. The rate of AChE hydrolysis was monitored spectrophotometrically. […] Absorbance at 405 nm was recorded immediately after adding Ellman’s reaction mixture (3.5 mL; 0.5 mM acetylthiocholine, 1 mM DTNB) in a 50 mM sodium phosphate buffer (pH 8.0) to the reaction mixture. Readings were repeated for 30 min to verify the reaction. […] The percentage of AChE inhibition was calculated using the following formula: (3) %Cholinesterase inhibition=[A control – A sample/Acontrol]×100
Assessment of BuChE inhibition was performed as described in Equation (3) except that the enzyme solution was (100 μL) acetylthiocholine iodide was replaced with butyrylthiocholine iodide. All other reagents and conditions remained the same.

SMILES strings stand for the structures.

T1 sequence (Q9JKC1 24-597): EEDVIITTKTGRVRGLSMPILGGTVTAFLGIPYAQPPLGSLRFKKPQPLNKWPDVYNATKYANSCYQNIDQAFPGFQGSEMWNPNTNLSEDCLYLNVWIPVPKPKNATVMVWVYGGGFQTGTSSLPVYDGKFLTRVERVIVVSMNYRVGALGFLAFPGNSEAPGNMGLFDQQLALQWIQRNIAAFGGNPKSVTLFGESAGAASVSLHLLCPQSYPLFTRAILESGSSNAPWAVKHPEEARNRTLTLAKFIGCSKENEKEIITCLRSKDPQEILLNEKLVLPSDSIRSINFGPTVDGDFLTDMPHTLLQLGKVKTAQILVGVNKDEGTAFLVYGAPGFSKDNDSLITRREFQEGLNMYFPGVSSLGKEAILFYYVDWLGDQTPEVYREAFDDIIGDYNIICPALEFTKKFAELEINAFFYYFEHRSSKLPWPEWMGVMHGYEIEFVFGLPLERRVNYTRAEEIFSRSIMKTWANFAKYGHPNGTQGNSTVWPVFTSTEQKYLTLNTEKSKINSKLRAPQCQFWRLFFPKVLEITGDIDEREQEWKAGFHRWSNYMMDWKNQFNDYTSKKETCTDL

The IC50 is the concentration that gives 50% inhibition. Turning to `O=C1O[C@H]([C@@H](O)CO)C(O)=C1O` [Ascorbic acid, ascorbic acid], in test [1], the “Lipid peroxidation IC50” value amounted to 14.393 ± 0.54 mg/L and the IC50 came out at 81.72 ± 0.309 µM. In addition, in test [2], the “DPPH radical IC50” value stood at 10.186 ± 0.14 mg/L and half-maximal inhibition (IC50) was put at 57.8 ± 0.827 µM.

`O=c1c(O)c(-c2ccc(O)c(O)c2)oc2cc(O)cc(O)c12` [Quercetin]: the 50% inhibitory concentration (IC50) is 80.5 µM in test [3], 83.51 ± 0.654 µM in test [1] and 45.7 ± 1.13 µM in test [2]. Also, the “Lipid peroxidation IC50” value in test [1] worked out at 25.242 ± 1.97 mg/L. Moreover, the “DPPH radical IC50” value in test [2] was 13.803 ± 0.34 mg/L.

These data come from paper PMC8871626, “UPLC-PDA-ESI-QTOF-MS/MS fingerprint of purified flavonoid enriched fraction of Bryophyllum pinnatum; antioxidant properties, anticholinesterase activity and in silico studies” (Pharmaceutical Biology, 2021).
